These are literature values, as cited in patent US9814693B2 (priority 2012, dated 2017).

SMILES strings stand for the structures. Where a name gives a salt, the structure may show the parent alone.

For one data set, the system named is CML. The conditions noted are these: first-line.
For data set [1] the following is noted: compared with all the diepoxyhexitols.
For data set [2] the following is noted: solution in distilled water.
The subject of data set [3] is mice.
Data set [4] deals with Ehrlich ascites tumor cells.
A further data set concerns Barle's L cells. The conditions noted are these: percentage of control cloning efficiency.
Data set [5] concerns intracerebral murine ependymoblastomas. Conditions: intracerebral tumors.
The subject of data set [6] is erythrocytes.
For data set [7], the system named is rabbits. The conditions noted are these: i.v. 2.5 and 0.25 mg/kg every second day for 30 or 70 days.
The conditions of data set [8]: normal brain and intracerebral tumor tissue.
For data set [9], the system named is mice. The conditions noted are these: after the start of treatment (time not given); these and previous studies.
For data set [10], the system named is Chinese hamster cell cultures. The conditions noted are these: low doses, in vitro.
Another data set concerns L1210 leukemia. Conditions: mice, early form of L1210 leukemia, various doses.
The next data set relates to NK/Ly tumor. Conditions: NK/Ly tumor-bearing mice.
For data set [11], the system named is rabbits.
For data set [12], the system named is erythrocytes. Conditions: fresh whole dog blood, 37° C., within 2 hours.
The next data set relates to S180 ascites tumors. The conditions noted are these: S180 ascites tumor.
Assay in data set [13]: not given
This is another data set of the same source.

The conditions of data set [14]: in vivo.

With `Cc1ccc(NC(=O)c2ccc(CN3CCN(C)CC3)cc2)cc1Nc1nccc(-c2cccnc2)n1` [Gleevec, imatinib mesylate], the “estimated overall survival rate” value with CML (CML patients, following two years) is 91%. Further, in the data set on CML, the “patients with cytogenetic response” value is “up to 60%”. Further, the “patients free of disease worsening” value with CML (following two years) was approximately 90%.

For `OC(C1CO1)C(O)C1CO1` (centres unmarked) [dianhydrogalactitol, 1,2:5,6-Dianhydrogalactitol], in data set [1], the chemical stability result is “most chemically stable”. Further, the “local effect of the solution” value in [2] is given as “slight, locally irritating effect”. In the data set on mice [3] (acute toxicity), the “atrophy of the spleen and lymph nodes, compared with dibromodulcitol” value is listed as “more marked”. Also, in the data set with mice [3] (acute toxicity), the “time of death, compared with dibromodulcitol” value is recorded as “died earlier”. The “symptoms at the LD50” value with mice [3] (animals treated with the LD50 (15 mg/kg)) is listed as “gastrointestinal symptoms (including weight loss) were dominant”. Besides, in the data set with mice [3] (mice, single dose), the LD80 is 18 mg/kg. The LD50 is recorded as 15 mg/kg in the data set on mice [3] (mice, single dose, survivors observed 21 days); 10 mg/kg in the data set on rats (single dose); 14.0 mg/kg with rabbits [11] (single i.v. dose). Also, the “multinucleated cells, compared with mannitol mustard or dibromodulcitol” value in data set [4] (Ehrlich ascites tumor cells) is listed as “more frequently”. For the same compound, the “time of earliest detectable ultrastructural effects” value in data set [4] (larger dose (7.5 mg/kg i.p.), after administration) was 3 h. In addition, the “time at which ultrastructural effect could be detected” value in data set [4] (smaller doses (3.7 mg/kg i.p.), after treatment) is 72 to 96 h. Besides, the “animals recovered after treatment” value in the data set with Ehrlich ascites tumor and with S180 ascites tumors was “Fifty” throughout. Besides, in the data set with Ehrlich ascites tumor (0.75 mg/kg (one-sixtieth of the LD50)), the tumor weight inhibition is reported as 68%. Moreover, the “concentration giving 50 percent survival (cloning efficiency)” value with Barle's L cells is 4 µg/mL. Moreover, the antitumor activity entry in data set [5] is reported as “activity”. The “initially present drug remaining with the erythrocytes” value in the data set on erythrocytes [6] (after dialysis for 14 hours) is 36%. Besides, the “initially erythrocyte-bound drug lost to the dialysis medium” value in the data set with erythrocytes [6] (within 2 hours, pH 7.4, 37° C.) is reported as 50%. Moreover, in the data set on rabbits [7], the most marked alterations result is reported as “cell population reductions (especially of the myeloid elements) in the bone marrow”. In addition, in the data set on rats (single 10, 5 or 2.5 mg/kg dose, 1 hour to 21 days), the “changes in the parenchymal organs” value was “No changes”. For the same compound, the blood-brain barrier passage entry in data set [8] is “rapidly crosses the blood-brain barrier”. Further, the “dose dependence of distribution and elimination” value (3 and 6 mg/kg, one dog) was “dose-independent”. Further, the “mean Cl” value (dogs, i.v. 3 and 6 mg/kg) was 23.4 mL/min/kg. The “mean value of V” value (dogs, i.v. 3 and 6 mg/kg) was 0.462 L/kg. In addition, under “dogs, i.v. 3 and 6 mg/kg”, the “mean value of VDss” value was 0.779 L/kg. Also, the “mean t1,2,β” value (dogs, i.v. 3 and 6 mg/kg, intact drug in plasma) is 26.6 min. The “drug accumulation of five cytostatic hexitol derivatives” value (“drug accumulation” below) in the data set with mice [9] is 0%. In addition, in data set [10], the chromosome aberrations result was “induced characteristic chromosome aberrations”. Further, the prolongation of lifespan with L1210 leukemia is 50%-200%. The increase in lifespan in the data set with NK/Ly tumor is given as 200%. In addition, in the data set on rabbits [11] (repeated injections of smaller doses (17×2.5, 17×0.25 mg/kg i.v.)), the “effect on platelet counts” value is given as “no changes in platelet counts”. Besides, in the data set with rabbits [11] (single 14.0 mg/kg i.v.), the effect on platelets result is “persistent thromobocytopenia”. The “decrease in the granulocyte count” value in the data set with rabbits [11] (single 14.0 mg/kg i.v., disappeared in 30 days) is reported as 50%. In addition, in the data set on beagle dogs (dog 1, 6 mg/kg i.v. on day 8 after 3 mg/kg on day 1), the “death, time after injection” value is 7 days. Besides, the “death, time after administration” value in the data set with beagle dogs (dog 2, 6 mg/kg i.v.) was 12 days. The “doses at which toxicity occurs” value in the data set with beagle dogs (dog, i.v.) is “greater than 3 mg/kg”. The “findings associated with death” value in the data set on beagle dogs (dogs given 6 mg/kg i.v.) is “bone marrow hypoplasia, leucopenia, and thrombocytopenia”. The “incubated dose bound to erythrocytes” value in the data set on erythrocytes [12] is 37.7%. The cytomorphologic effect result with HeLa cell cultures (100-μg dose) is listed as “complete cellular disintegration”.

For the compound `O[C@H]([C@H](O)[C@@H](O)CBr)[C@H](O)CBr` [dibromodulcitol], the relative effectiveness entry in the data set with Harding-Passey melanoma was “more effective than dianhydrogalactitol”. In [13], the solubility in water result was “hardly soluble in water”. In addition, the “effect on the tumor” value with Ehrlich ascites tumor (doses equitoxic to 0.75 mg/kg dianhydrogalactitol) is recorded as “no effects”. For the same compound, in the data set on Barle's L cells, the “concentration giving 50 percent survival (cloning efficiency)” value is 75 µg/mL. Besides, the “drug accumulation” value in the data set with mice [9] was 62%. For the same compound, the prolongation of lifespan in the data set on L1210 leukemia is reported as 40%. Further, the increase in lifespan with NK/Ly tumor is 90%. Moreover, the “absorption by the oral route” value in data set [14] was “rapid and fairly complete”. Besides, the mitotic index in the data set on HeLa cell cultures (10-μg dose, untreated control 2.9%) was 0.

As to `CS(=O)(=O)OC[C@@H](O)[C@@H](O)[C@H](O)[C@H](O)COS(C)(=O)=O` [mannitol myleran], the “drug accumulation” value in the data set with mice [9] is on record as 45%.
